{"source": "patent US20210379035A1", "about": "“Methods Of Treating Fabry Patients Having Renal Impairment” (Amicus Therapeutics, Inc., priority 2017, published 2021)", "key": {"Fabry patients": {"system": "Fabry patients", "test": "Analysis of 52 ERT-naive patients by baseline proteinuria: eGFR", "format": "in vivo, human", "conditions": "Migalastat cohort", "experimental": "Another analysis was performed on patients who participated in multiple studies for the use of migalastat. […] Results for […] were compared with changes in […] reported in the literature for untreated patients with Fabry disease (natural history cohort; Schiffmann R et al. Nephrol Dial Transplant. 2009; 24:2102-11) and are shown in Table 15 below: […]"}, "[1]": {"test": "Single-dose renal impairment PK and safety study in non-Fabry subjects (Example 1)", "format": "in vivo, human", "experimental": "The eGFR was estimated by the Cockcroft-Gault equation per the FDA Guidance for renal impairment studies.\nVolunteers were enrolled into two cohorts stratified for renal function calculated using the Cockcroft-Gault equation for creatinine clearance (CLCR). Subjects were assigned to groups based on an estimated CLCR at screening as calculated using the Cockcroft-Gault equation.\nSubjects were grouped according to degree of renal dysfunction: mild (CLCR≥60 and <90 mL/min), moderate (CLCR≥30 and <60 mL/min), or severe (CLCR≥15 and <30 mL/min)"}, "[2]": {"conditions": "human, plasma, oral, 150 mg, single 150 mg migalastat HCl, non-Fabry, Mild (N = 8)"}, "[3]": {"conditions": "human, plasma, oral, 150 mg, single 150 mg migalastat HCl, non-Fabry, Moderate (N = 8)"}, "[4]": {"conditions": "human, plasma, oral, 150 mg, single 150 mg migalastat HCl, non-Fabry, Normal (N = 8)"}, "[5]": {"conditions": "human, plasma, oral, 150 mg, single 150 mg migalastat HCl, non-Fabry, Severe (N = 8)"}}, "note": "Like-named read-outs stand apart in the source and are kept apart here.", "data": [{"smiles": "OC[C@H]1NC[C@H](O)[C@@H](O)[C@H]1O", "note": "[migalastat, (2R,3S,4R,5S)-2-(hydroxymethyl) piperdine-3,4,5-triol]", "values": [{"measurement": "Annualized eGFR Rate of Change (eGFRMDRD), Mean (SEM)", "setting": "Fabry patients; Females, baseline urine protein >1000 mg/24 h", "result": "−1.7 (1.1) mL/min/m^2"}, {"measurement": "Annualized eGFR Rate of Change (eGFRMDRD), Mean (SEM)", "setting": "Fabry patients; Males, baseline urine protein 100-1000 mg/24 h", "result": "0.9 (1.0) mL/min/m^2"}, {"measurement": "Annualized eGFR Rate of Change (eGFRMDRD), Mean (SEM)", "setting": "Fabry patients; Males, baseline urine protein <100 mg/24 h", "result": "1.2 (1.2) mL/min/m^2"}, {"measurement": "Annualized eGFR Rate of Change (eGFRMDRD), Mean (SEM)", "setting": "Fabry patients; Males, baseline urine protein >1000 mg/24 h", "result": "−4.3 (0.1) mL/min/m^2"}, {"measurement": "concentration at 3 h", "setting": "[1]; human, plasma, oral, 150 mg, Comparison to Example 1 Moderate Impairment (migalastat concentration), non-Fabry, moderate impairment, 3 Hrs Post", "result": 1870, "unit": "ng/mL"}, {"measurement": "concentration at 24 h", "setting": "[1]; human, plasma, oral, 150 mg, Comparison to Example 1 Moderate Impairment (migalastat concentration), non-Fabry, moderate impairment, 24 Hrs Post", "result": 239, "unit": "ng/mL"}, {"measurement": "concentration at 48 h", "setting": "[1]; human, plasma, oral, 150 mg, Comparison to Example 1 Moderate Impairment (migalastat concentration), non-Fabry, moderate impairment, 48 Hrs Post", "result": 64.5, "unit": "ng/mL"}, {"measurement": "concentration at 2 h", "setting": "[1]; human, plasma, oral, 150 mg, Comparison to Example 1 Severe Impairment (migalastat concentration), non-Fabry, severe impairment, 2 h", "result": 1550, "unit": "ng/mL"}, {"measurement": "concentration at 24 h", "setting": "[1]; human, plasma, oral, 150 mg, Comparison to Example 1 Severe Impairment (migalastat concentration), non-Fabry, severe impairment, 24 h", "result": 770, "unit": "ng/mL"}, {"measurement": "concentration at 48 h", "setting": "[1]; human, plasma, oral, 150 mg, Comparison to Example 1 Severe Impairment (migalastat concentration), non-Fabry, severe impairment, 48 h", "result": 334, "unit": "ng/mL"}, {"measurement": "AUC(0-inf)", "setting": "[1]; [2]", "result": 14500, "unit": "ng·h/mL"}, {"measurement": "AUC(0-t)", "setting": "[1]; [2]", "result": 14400, "unit": "ng·h/mL"}, {"measurement": "Cmax", "setting": "[1]; [2]", "result": 2190, "unit": "ng/mL"}, {"measurement": "concentration at 48 h", "setting": "[1]; human, plasma, oral, 150 mg, single 150 mg migalastat HCl, non-Fabry, Mild (N = 8), read-out: C48", "result": 9.34, "unit": "ng/mL"}, {"measurement": "half-life", "setting": "[1]; human, plasma, oral, 150 mg, single 150 mg migalastat HCl, non-Fabry, Mild (N = 8), read-out: t1/2 (converted)", "result": 7.66, "unit": "h"}, {"measurement": "AUC(0-inf)", "setting": "[1]; [3]", "result": 22500, "unit": "ng·h/mL"}, {"measurement": "AUC(0-t)", "setting": "[1]; [3]", "result": 22100, "unit": "ng·h/mL"}, {"measurement": "Cmax", "setting": "[1]; [3]", "result": 1870, "unit": "ng/mL"}, {"measurement": "Tmax", "setting": "[1]; [3]", "result": 3, "unit": "h"}, {"measurement": "concentration at 48 h", "setting": "[1]; human, plasma, oral, 150 mg, single 150 mg migalastat HCl, non-Fabry, Moderate (N = 8), read-out: C48", "result": 64.5, "unit": "ng/mL"}, {"measurement": "half-life", "setting": "[1]; human, plasma, oral, 150 mg, single 150 mg migalastat HCl, non-Fabry, Moderate (N = 8), read-out: t1/2 (converted)", "result": 22.2, "unit": "h"}, {"measurement": "AUC(0-inf)", "setting": "[1]; [4]", "result": 12400, "unit": "ng·h/mL"}, {"measurement": "AUC(0-t)", "setting": "[1]; [4]", "result": 12300, "unit": "ng·h/mL"}, {"measurement": "Cmax", "setting": "[1]; [4]", "result": 2100, "unit": "ng/mL"}, {"measurement": "concentration at 48 h", "setting": "[1]; human, plasma, oral, 150 mg, single 150 mg migalastat HCl, non-Fabry, Normal (N = 8), read-out: C48", "result": 5.7, "unit": "ng/mL"}, {"measurement": "half-life", "setting": "[1]; human, plasma, oral, 150 mg, single 150 mg migalastat HCl, non-Fabry, Normal (N = 8), read-out: t1/2 (converted)", "result": 6.42, "unit": "h"}, {"measurement": "AUC(0-inf)", "setting": "[1]; [5]", "result": 56200, "unit": "ng·h/mL"}, {"measurement": "AUC(0-t)", "setting": "[1]; [5]", "result": 53100, "unit": "ng·h/mL"}, {"measurement": "Cmax", "setting": "[1]; [5]", "result": 2080, "unit": "ng/mL"}, {"measurement": "Tmax", "setting": "[1]; [5]", "result": 4.27, "unit": "h"}, {"measurement": "concentration at 48 h", "setting": "[1]; human, plasma, oral, 150 mg, single 150 mg migalastat HCl, non-Fabry, Severe (N = 8), read-out: C48", "result": 334, "unit": "ng/mL"}, {"measurement": "half-life", "setting": "[1]; human, plasma, oral, 150 mg, single 150 mg migalastat HCl, non-Fabry, Severe (N = 8), read-out: t1/2 (converted)", "result": 32.3, "unit": "h"}, {"measurement": "half-life", "setting": "[1]; human, plasma, po, 150 mg, single oral 150 mg migalastat HCl, mild renal impairment, read-out: t1/2 in plasma, arithmetic mean [min, max] (converted)", "result": 7.7, "unit": "h"}, {"measurement": "half-life", "setting": "[1]; human, plasma, po, 150 mg, single oral 150 mg migalastat HCl, moderate renal impairment, read-out: t1/2 in plasma, arithmetic mean [min, max] (converted)", "result": 22.2, "unit": "h"}, {"measurement": "half-life", "setting": "[1]; human, plasma, po, 150 mg, single oral 150 mg migalastat HCl, normal renal function, read-out: t1/2 in plasma, arithmetic mean [min, max] (converted)", "result": 6.4, "unit": "h"}, {"measurement": "half-life", "setting": "[1]; human, plasma, po, 150 mg, single oral 150 mg migalastat HCl, severe renal impairment, read-out: t1/2 in plasma, arithmetic mean [min, max] (converted)", "result": 32.3, "unit": "h"}, {"measurement": "Plasma migalastat concentration", "setting": "[1]; non-Fabry, moderate impairment, Pre-dose (0 h), same value as 48 h", "result": 64.5, "unit": "ng/mL"}, {"measurement": "CL/F", "setting": "[1]; single 150 mg migalastat HCl, non-Fabry, Mild (N = 8)", "result": 10.3, "unit": "L/h"}, {"measurement": "CL/F", "setting": "[1]; single 150 mg migalastat HCl, non-Fabry, Moderate (N = 8)", "result": 6.68, "unit": "L/h"}, {"measurement": "CL/F", "setting": "[1]; single 150 mg migalastat HCl, non-Fabry, Normal (N = 8)", "result": 12.1, "unit": "L/h"}, {"measurement": "CL/F", "setting": "[1]; single 150 mg migalastat HCl, non-Fabry, Severe (N = 8)", "result": 2.67, "unit": "L/h"}, {"measurement": "Incidence of adverse events", "setting": "[1]; single 150 mg migalastat HCl, all renal function groups", "result": "comparable across all renal function groups"}, {"measurement": "increase of mean plasma migalastat AUC0-∞ compared to healthy control subjects", "setting": "[1]; single oral 150 mg migalastat HCl, mild renal impairment", "result": 1.2, "unit": "fold"}, {"measurement": "increase of mean plasma migalastat AUC0-∞ compared to healthy control subjects", "setting": "[1]; single oral 150 mg migalastat HCl, moderate renal impairment", "result": 1.8, "unit": "fold"}, {"measurement": "increase of mean plasma migalastat AUC0-∞ compared to healthy control subjects", "setting": "[1]; single oral 150 mg migalastat HCl, severe renal impairment", "result": 4.5, "unit": "fold"}]}]}
